The source of these data is patent US7687472B2, “Methods and compositions for treating hyperglycemic, hyperlipidemic, or hyperinsulinemic disorders” (Ohio University, priority 2004, dated 2010).

The test system of one test is 3T3-L1 adipocytes. The test is described as follows: Glucose uptake ([3H] 2-deoxy-D-glucose) assay in 3T3-L1 adipocytes. The class given is cell-based. The following applies: for glucose transport inducing activity compared with α-PGG: α-PGG 30 μM. The protocol:
Glucose uptake activity in cells may be analyzed by measuring the uptake of 2-deoxy-D-[3H] glucose using a standard assay. Confluent 3T3-L1 adipocytes grown in 12-well plates are washed twice with serum-free DMEM and incubated with 1 mL of the same medium at 37° C. for 2 h. The cells are washed 3 times with Krebs-Ringer-Hepes (KRP) buffer and incubated with 0.9 mL KRP buffer at 37° C. for 30 min. Insulin (positive control) or the compounds of Formula I, II, or III (experimentals) are then added at pre-determined concentrations and adipocytes are incubated at 37° C. for 15 min. Glucose uptake is initiated by addition of 0.1 mL KRP buffer and 37 MBq/L 2-deoxy-D-[^3H] glucose and 1 mmol/L glucose as final concentrations. After 10 min, glucose uptake is terminated by washing the cells 3 times with cold PBS. The cells are lysed with 0.7 mL of 1% Triton X-100 at 37° C. for 20 min. The radioactivity retained by the cell lysates is determined by a scintillation counter. The dosage that induces the maximal glucose uptake can be selected among the experimental samples.
6Cl-α-TGQ and 6Cl-β-TGQ were synthesized as described above. α-TGQ was synthesized using methods analogous to the preparation of 6Cl-α-TGQ (Examples 1 and 2) starting from commercially available 6-deoxy-D-glucose. Alpha-pentagalloylglucose (α-PGG) was obtained. 3T3-L1 preadipocytes grown in 24-well plates were induced by MDI until they were differentiated into adipocytes. Adipocytes were washed twice with serum-free DMEM and incubated with 0.5 ml of the same medium in 10% C02 at 37 ° C. for 2 hours. The cells were washed 3 times with Kerbs-Ringer-HEPES (KRP) buffer (136 mM NaCl, 4.7 mM KCl, 1.25 mM CaCl2, 1.25 mM MgSO4 and 10 mM sodium phosphate buffer at pH 7.4) and then incubated with 0.45 ml KRP buffer at 37 ° C. for 30 minutes. Glucose transport inducing agents were individually added to the cells at predetermined concentrations and each condition was duplicated or triplicated, then the adipocytes were incubated at 37 ° C. for 15 minutes. Glucose uptake was initiated by the addition of 0.1 ml of KPR buffer supplemented with 1 μCi/ml [^3H] 2-deoxy-D-glucose and 1 mM cold glucose as the final concentration to the cells. After 10 min, the medium was aspirated and the plates were washed with ice-cold PBS three times to terminate the induced glucose uptake. The cells were lysed with 0.45 ml of 1% triton X-100 at 37 ° C. for 20 min. The radioactivity taken up by the cells was determined in a solution of 0.4 ml of the cell lysates and 5 ml of scintillation liquid using a scintillation counter (Beckman Instruments).
6Br-α-TGQ and 6Br-β-TGQ were chemically synthesized using a preparation analogous to the preparation of 6Cl-TGQ (Examples 1, 2 and 3) starting from commercially available 6-bromo-D-glucose. 6Cl-α-TGQ was synthesized as described above. Alpha-pentagalloylglucose (α-PGG) was obtained. Confluent 3T3-L1 adipocytes were purchased from ATCC and grown in 12-well plates are washed twice with serum-free DMEM and incubated with 1 mL of the same medium at 37° C. for 2 h. The cells are washed 3 times with Krebs-Ringer-Hepes (KRP) buffer and incubated with 0.9 mL KRP buffer at 37° C. for 30 min.
Glucose uptake was initiated by addition of 0.1 mL KRP buffer and 37 MBq/L 2-deoxy-D-[^3H] glucose and 1 mmol/L glucose as final concentrations, and the ^3H labeled glucose was then added to the cells for 15 min. […] The radioactivity retained by the cell lysates was determined by a scintillation counter. […]

The subject of test [1] is 3T3-L1 preadipocytes. The test is described as follows: MDI-induced differentiation of 3T3-L1 preadipocytes into adipocytes, measured by glucose uptake. The class given is cell-based. The settings on record: MDI plus 20 μM compound; ten days after induction; FIG. 4. On the procedure:
FIG. 4 illustrates adipocyte differentiation induced by MDI. […] Ten days after the induction, cells were assayed for their respective ability to take up glucose from the media by a radioactive glucose uptake assay. Each sample (condition) was in triplicate. The concept that adipocyte differentiation can be indirectly measured by glucose uptake was based on the observation that only differentiated adipocytes can take up glucose through a Glut4-mediated pathway while undifferentiated preadipocytes cannot.
To determine the effective concentration of the compounds of Formula I, II, or III to use in preventing adipogenesis in vitro, undifferentiated preadipocytes are incubated either with a differentiation-induction cocktail, comprised of 3-isobutyl-1-methylxanthine, dexamethasone, and insulin (MDI); or with MDI plus the test compound. After about 10 days MDI induces differentiation, which is clearly visible as the change from fibroblast-like preadipocytes to round-shaped, fat vesicle-containing adipocytes. […]
Ten days after the induction, cells were assayed for their respective ability to take up glucose from the media by a standard radioactive glucose uptake assay. […] The adipocyte differentiation can be measured by glucose uptake because only differentiated adipocyte can take up glucose through Glut4-mediated pathway while undifferentiated preadipocytes cannot.

Another test deals with Glut4. The test is described as follows: Glut4 translocation by immunostaining and confocal microscopy in 3T3-L1 adipocytes. The following applies: FIG. 3. The class given is cell-based. On the procedure:
FIG. 3 illustrates induced Glut4 translocation. 3T3-L1 adipocytes were either uninduced, or induced by 1 μM insulin, or 30 μM 6Cl-α-TGQ. The treated cells were immunostained with an anti-Glut4 antibody followed with the secondary antibody (Fluorescein (FITC)-conjugated affinipure F(ad′)2 fragment Donkey anti-Mouse IgG). The cells were then mounted for microscopic visualization. The immunostained cells were visualized with a Zeiss LSM510 confocal microscope at wavelength of 488 nm for excitation and 520 nm for emission.
The treated cells were immunostained with an anti-Glut4 antibody followed with the secondary antibody (Fluorescein (FITC)-conjugated affinipure F(ad′)2 fragment Donkey anti-Mouse IgG). The cells were then mounted for microscopic visualization. The immunostained cells were visualized with a Zeiss LSM510 confocal microscope at wavelength of 488 nm for excitation and 520 nm for emission.

The next test relates to Akt. The test is described as follows: Akt phosphorylation by Western blot in CHO-IR cells and 3T3-L1 adipocytes. It counts as cell-based. The settings on record: CHO-IR cells or 3T3-L1 adipocytes; anti-phosphorylated Akt antibody. On the procedure: (§1) FIG. 6 illustrates that novel TGQ compounds stimulate IR and Akt phosphorylation in CHO-IR cells and Akt phosphorylation in 3T3-L1 fat cells. CHO-IR cells or 3T3-L1 adipocytes were induced under conditions as shown. Total protein was isolated from the cells and subjected SDS-PAGE and subsequently transferred to a […] membrane. The proteins on the membrane were detected by anti-phosphorylated IR or Akt antibodies. […] Thirty to 60 μg of total protein and the biotinylated protein marker was mixed with SDS sample buffer and heated at 95-100° C. for 5 minutes. Then, each sample and a marker were subjected to 8% SDS POLYACRYLAMIDE GEL ELECTROPHORESIS (SDS-PAGE). After electrophoresis, the proteins on the gel were transferred to a nitrocellulose. The nitrocellulose membrane was blocked, and then incubated with the desired primary antibody (specifically against either phosphorylated form of IR or Akt) overnight at 4° C. with gentle agitation. After overnight incubation, the membrane was washed, and then incubated with the HRP-conjugated secondary antibody for 1 hour at room temperature. Then, the membrane was washed, the proteins on the membrane were detected by a Western blotting LumiGLO system (Cell Signaling Tech, Inc) and finally visualized by exposing the membrane to an x-ray film in a cassette for a proper time, usually from 1 to 10 minutes.
For orientation: A western blot detects proteins with antibodies after separation by electrophoresis.

For a further test, the system named is IR. Briefly: IR phosphorylation by Western blot in CHO-IR cells. The following applies: anti-phosphorylated IR antibody. The class given is cell-based. On the procedure: as §1
Test [2] concerns 3T3-L1 preadipocytes. The settings on record: α-PGG used at 20 μM with MDI; cited from earlier work.

`CC1OC(OC(=O)c2cc(O)c(O)c(O)c2)C(OC(=O)c2cc(O)c(O)c(O)c2)C(OC(=O)c2cc(O)c(O)c(O)c2)C1OC(=O)c1cc(O)c(O)c(O)c1` (stereo not drawn) [α-TGQ]: in the test on 3T3-L1 adipocytes (various concentrations), the “glucose transport stimulatory activity” value is “active”.

On to “6-chloro-1,2,3,4-tetragalloyl-D-quinovopyranose [6Cl-β-TGQ]”, for which the “inhibition of adipocyte differentiation” value in the test on 3T3-L1 preadipocytes [1] is “inhibit adipocyte differentiation”.

For the molecule “insulin: the hormone which regulates glucose utilization; positive control”, the “Glut4 translocation to the cell membrane” value in the test on Glut4 (1 μM insulin) is “induced Glut4 translocation to the cell membrane”.

As for “6-chloro-1,2,3,4-tetragalloyl-D-quinovopyranose [6Cl-TGQ]”, the Akt phosphorylation result in the test on Akt was “can induce IR and Akt phosphorylation”. Further, the IR phosphorylation result in the test with IR is “can induce IR and Akt phosphorylation”. Also, the “Glut4 translocation to the cell membrane” value with Glut4 (30 μM compound) was “induced Glut4 translocation to the cell membrane”.

Turning to `O=C(O[C@H]1O[C@H](CCl)[C@@H](OC(=O)c2cc(O)c(O)c(O)c2)[C@H](OC(=O)c2cc(O)c(O)c(O)c2)[C@H]1OC(=O)c1cc(O)c(O)c(O)c1)c1cc(O)c(O)c(O)c1` [6Cl-α-TGQ, 6-chloro-α-1,2,3,4-tetragallolyl-D-quinovopyranose], in the test with 3T3-L1 adipocytes (30 μM compound, insulin control 1 μM, FIG. 2), the “more glucose transported than the insulin controls” value is listed as 10%. Also, in the test on 3T3-L1 adipocytes (insulin 1 μM, FIG. 2), the “glucose transport activity compared with insulin” value is “as active as insulin”. In addition, the “glucose transport inducing activity compared with α-PGG” value with 3T3-L1 adipocytes (FIG. 2) is “more active than pentagalloyl-α-D-glucopyranose (α-PGG)”; in the test on 3T3-L1 adipocytes (FIG. 2, listed as 6Cl-α: TGQ), “more active than α-PGG”. Further, the “inhibition of adipocyte differentiation” value with 3T3-L1 preadipocytes [1] is recorded as “inhibit adipocyte differentiation”. Moreover, the “Glut4 translocation to the cell membrane” value with Glut4 (30 μM compound) is “induced Glut4 translocation to the cell membrane”.

Turning to `O=C(OC[C@H]1O[C@H](OC(=O)c2cc(O)c(O)c(O)c2)[C@H](OC(=O)c2cc(O)c(O)c(O)c2)[C@@H](OC(=O)c2cc(O)c(O)c(O)c2)[C@@H]1OC(=O)c1cc(O)c(O)c(O)c1)c1cc(O)c(O)c(O)c1` [α-PGG, pentagalloyl-α-D-glucopyranose], in the test with 3T3-L1 preadipocytes [2], the “inhibition of adipocyte differentiation (known)” value is on record as “known to inhibit the differentiation”.
